# Data as given in patent US20260234660A1, “TREATMENT OF MUSCLE RELATED DISORDERS WITH ANTI-HUMAN CACNG1 ANTIBODIES” (Regeneron Pharmaceuticals, Inc., priority 2023, published 2026).
# Counter-ions that a name gives are not always drawn.
# System: human myotubes
# Test: Acetylcholine-induced calcium flux assay in human myotubes (FLIPR)
# Format: cell-based
# Conditions: 20 μM nicardipine, positive control for calcium blocking
# Procedure: CACNG1 is the γ1 subunit of the skeletal muscle specific L-type calcium channel, (dihydropyridine receptor), though genetic deletion of CACNG1 appears to have no major impact on skeletal muscle function. To determine whether antibodies that bind CACNG1 impact muscle function, a calcium flux assay was performed on human myotubes that were incubated with CACNG1 antibodies to determine whether these antibodies affect acetylcholine-induced calcium release.
# Human skeletal myoblasts (Cook Myosite, Inc.) were plated at 10,000 cells/well of a 96-well plate and were differentiated for 7 days into myotubes. On the final day of differentiation, media was replaced with 50 μL of FLIPR calcium 5 dye with probenecid (Invitrogen) and 50 uL of assay buffer (0.1% BSA-DMEM) per well. CACNG1 and isotype control antibodies were serial diluted in assay buffer and added to the cells and incubated at 37° C. in a 5% CO2 incubator for 1 hour prior to the calcium flux assay. Nicardipine hydrochloride (Sigma) was added to untreated wells to serve as a control for calcium channel blockade. After 1 hour, acetylcholine (Sigma) was added at a 20 uM final concentration to induce myotube calcium release, and plates were assayed on a FLIPR Tetra (Molecular Devices, LLC).
smiles,measurement,value
"COC(=O)C1=C(C)NC(C)=C(C(=O)OCCN(C)Cc2ccccc2)C1c1cccc([N+](=O)[O-])c1 (stereo not shown) [nicardipine, Nicardipine hydrochloride, reference compound]",effect on human myotube calcium release,substantially reduced human myotube calcium release
